These are literature values, as cited in patent publication US20230140155A1, “MEDICAMENT FOR TREATMENT AND/OR PREVENTION OF CANCER” (TORAY INDUSTRIES, INC., priority 2020, published 2023).

The data set concerns basal-like subtype breast cancer (BLBC). Conditions: with docetaxel following epirubicin and cyclophosphamide (EC treatment).

Regarding `[NH2][Pt]1([NH2])[O]C(=O)C2(CCC2)C(=O)[O]1` [carboplatin, (SP-4-2)-diammine[cyclobutan-1,1-dicaruboxylato(2-)-O,O′]platinum], the “effectiveness for treatment of BLBC” value was “not effective”.
